According to patent publication US9585929B2 (ZHEJIANG KANGLAITE GROUP CO., LTD., priority 2014, dated 2017):
Values after ≈ are worked out from the molar mass of the structure shown. Structures can show the parent of a compound that is named as a salt. Marks after values point to notes of the source that are not given here. Values belong to the compound of their own block, whether it stands above or below them.

Columns and labels:
[1] = tested on: W256 cancer sarcoma; test: W256 cancer sarcoma model in rats; format: in vivo, Wistar rats
Protocol: The injection of the invention (10 g/100 ml), Cyclophosphamide (CTX) and normal saline
W256 cancer sarcoma: inoculated in Wistar rats, 50-60 g, female
Ascitic fluid of rats with well-grown W256 cancer sarcoma was diluted with normal saline to obtain a cell suspension of about 1-2×10^7 cells/ml. Each rat was inoculated with 0.2 ml of the suspension at the right axilla subcutaneously. The rats were grouped randomly next day and began administration. Two weeks later, animals were sacrificed and dissected to take out the tumor block. Weights of tumor were compared between each experimental group and the control group and tumor inhibition rates were calculated.

[2] = tested on: S180 sarcoma; test: S180 sarcoma model in mice; format: in vivo, Kunmin mice
Protocol: The injection of the invention (10 g/100 ml), Cyclophosphamide (CTX), Mitoxantrone (DHAD), Mitomycin (MMC) and normal saline
Ascitic fluid of mice having well-grown […] sarcoma was diluted with normal saline (1:4) to obtain a cell suspension of about 1-2×10^7 cells/ml. Each mouse was inoculated with 0.2 ml of the suspension subcutaneously at the right axilla, and the mice were grouped randomly. The administration began from the next day according to the dosage program in Table 7. On the tenth day after the inoculation of S180, animals were sacrificed via cervical dislocation and dissected to take out the tumor block. Weights of tumor were compared and inhibition rates were calculated for each group.

[3] = tested on: LM-3 human hepatoma; test: Xenograft model of LM-3 human hepatoma inoculated subcutaneously in nude mice
Protocol: The injection of the invention (10 g/100 ml), cyclophosphamide (Jiangsu Hengrui Medicine Co., Ltd), blank fat emulsion and normal saline

[4] = tested on: SMMC-7721 human hepatoma; test: Xenograft model of SMMC-7721 human hepatoma inoculated subcutaneously in nude mice; format: in vivo
Protocol: A549 Human lung cancer cells cryopreserved in liquid nitrogen were recovered, and incubated in a 37 incubator under 5% CO2. After being subcultured, cells in a logarithmic growth stage were distributed with normal saline to be a cell suspension in a concentration of 1-2×10^7 cells/ml. The cell suspension was inoculated into BALB/C nude mice (SPF grade, 18-20 g, 6 weeks old, male) subcutaneously at right axillary. The tumor tissues were aseptically taken from the 2nd generation of xenograft model of A549 human lung cancer in a vigorous growth stage and cut into small uniform pieces in the size of 1-2 mm^3. The right axillary of each nude mouse was inoculated one piece subcutaneously via a trocar. When the inoculated tumor could be touched, the mice were randomly grouped and administered according to the experimental design program. […] The nude mice were fed in a laminar flow rack. Tumor sizes and animal weights were observed and tested dynamically. Mice in each group were sacrificed 3 weeks later or so, and tumors were surgically removed and weighed. The inhibition rate on tumor was calculated according to the following formula: Inhibition rate %=[(Mean tumor weight of the control group−mean tumor weight of the treatment group)/mean tumor weight of the control group]×100%;
(§10) Q value of antitumor effect in drug combination was calculated according to Jin's formula: Q=Ea+b/(Ea+Eb−Ea×Eb) Wherein Ea+b=the tumor inhibition rate of drug combination, Ea or Eb=the tumor inhibition rate of drug A or drug B, respectively. If Q value=0.85-1.15, an additive effect (+) was shown; if Q value>1.15, a synergistic effect (++) was shown.

[5] = tested on: PANC-1 human pancreatic cancer; test: PANC-1 human pancreatic cancer model in nude mice; format: in vivo, BALB/C nude mice; conditions: Gemcitabine 60 mg/kg iv × 1
Protocol: as §10
PANC-1 human pancreatic cancer cells: inoculated in BALB/C nude mice, 16-18 g, female
Tumor blocks of well-grown PANC-1 human pancreatic cancer were inoculated subcutaneously in 4-week-old female BALB/C nude mice. The nude mice were grouped randomly and administered. One week after the end of the administration, the mice were sacrificed and dissected. Tumor blocks were taken out and weighed. Differences of tumor weight between each experimental group and the control group were compared and the tumor inhibition rates were calculated.

[6] = tested on: MDA-MB-435 human breast cancer; test: MDA-MB-435 human breast cancer model in nude mice; format: in vivo, BALB/C nude mice; conditions: Paclitaxel 50 mg/kg ip × 1
Protocol: Each nude mouse was inoculated with 0.2 ml of the suspension at the right axilla subcutaneously, and the mice were grouped randomly. The administration began from the 7th day after the inoculation. 18 Days after the inoculation, the mice were sacrificed. Tumor blocks were taken out and weighed. Differences of tumor weight between each experimental group and the control group were compared, and tumor inhibition rates and Q values were calculated.

[7] = tested on: Bcap-37 (human breast cancer cells); test: MTT inhibition of tumor cell growth in vitro; format: cell-based; conditions: Bcap37
Protocol: (§1) The inhibition effects of samples on the above-mentioned cell lines were detected by using MTT method. The specific procedures were as follows:
(§2) (1) Cell culture: (a) Storaged cells were taken out from the liquid nitrogen, thawed quickly in a 37 water bath, then aseptically transferred into 6 ml of cellular medium in a 10 ml centrifugal tube, centrifuged at 1000 rpm for 5 min. The supernatant was discarded, then the precipitated cells were re-suspensed in 5-6 ml cellular media by pipetting and transferred into a flask in a 37 incubator for cell culture; (b) Next day, the flask was taken out from the incubator and the used medium was discarded, then the cells were incubated in 5-6 ml fresh medium in the 37 incubator; (c) On the third day, the flask was taken out from the incubator and the used medium was discarded, then 2-3 ml of PBS (pH7.4) was added into the flask with rocking for cleaning it and the used PBS was discarded. Such a cellular cleaning step was repeated once again. 3-5 drops of 0.25% trypsin solution were added into the flask with sloshing, thus well-distributed in it. The flask was capped and placed in a 37 incubator for about 3 min, and the separation of cells from the flask wall was observed under the microscope. 2 ml of cellular medium was added and cells were separated completely from the flask wall by pipetting, then the cell suspension was transferred into 2 separate clean flasks, each containing 5-6 ml medium. The cell suspension was well-distributed by pipetting, then the flask was placed in a 37 incubator. (d) Step (c) was repeated every other day. In the whole cultivation process, adherent cells were not allowed to grow too dense and suspension cells were always maintained at a logarithmic growth stage.
(§3) This solution was diluted in a gradient dilution with PBS to obtain a set of sample solutions in the concentration of 10 mg/ml, 5000 μg/ml, 2500 μg/ml, 1250 μg/ml, 625 μg/ml and 312.5 μg/ml, respectively.
(§4) (3) Each diluted sample solution was added into duplicated wells of a 96 well flat-bottom microplate (10 μl/well). The correspondingly diluted DMSO solutions, as controls, were added into the wells of the microplate.
(§5) (4) Cells in a logarithmic growth stage were trypsinized and washed, then re-suspended in the medium containing 10% calf serum. The number of living cells was counted in Trypan blue dye exclusion method and cell suspensions were adjusted into a density of 2×10^5 cell/ml.
(§6) (5) The cell-contained 96 well flat-bottom microplate was placed in a 37 incubator and cells were incubated under 5% CO2 for 48 h.
(§7) (6) 20 μl of 5 mg/ml MTT solution was added into each well and cells were incubated continuously in the incubator for 3-4 h.
(§8) (7) 100 μl of crystal dissolving solution was added into each well and cells were incubated continuously in the incubator overnight, so as to dissolve the resulted formazan crystals sufficiently. Then, the absorbance value was measured at 570 nm for each well.
(§9) (8) Based on absorbance values, inhibition rates on the cell growth were calculated for sample groups of various concentrations. The calculation formula was as follows: (1−mean absorbance of experimental wells/mean absorbance of control wells)×100%

[8] = tested on: HepG-2 (human hepatic cancer cells); test: MTT inhibition of tumor cell growth in vitro; format: cell-based; conditions: HepG2
Protocol: as §1, §2, §3, §4, §5, §6, §7, §8, §9

[9] = tested on: SKOV3 (human ovarian cancer cells); test: MTT inhibition of tumor cell growth in vitro; format: cell-based; conditions: SK-OV-3
Protocol: as §1, §2, §3, §4, §5, §6, §7, §8, §9

[10] = tested on: H460 (human lung cancer cells); test: MTT inhibition of tumor cell growth in vitro; format: cell-based; conditions: NCI-H460
Protocol: as §1, §2, §3, §4, §5, §6, §7, §8, §9

[11] = tested on: PANC-1 (human pancreatic cancer cells); test: MTT inhibition of tumor cell growth in vitro; format: cell-based
Protocol: as §1, §2, §3, §4, §5, §6, §7, §8, §9

[12] = tested on: A549 (human lung cancer cells); test: MTT inhibition of tumor cell growth in vitro; format: cell-based
Protocol: as §1, §2, §3, §4, §5, §6, §7, §8, §9

[13] = tested on: SMMC-7721 (human hepatic cancer cells); test: MTT inhibition of tumor cell growth in vitro; format: cell-based
Protocol: as §1, §2, §3, §4, §5, §6, §7, §8, §9

[14] = tested on: MCF-7 (human breast cancer cells); test: MTT inhibition of tumor cell growth in vitro; format: cell-based; conditions: MCF7
Protocol: as §1, §2, §3, §4, §5, §6, §7, §8, §9

[15] = tested on: QGY human hepatoma; test: Xenograft model of QGY human hepatoma inoculated subcutaneously in nude mice
Protocol: A549 Human lung cancer cells cryopreserved in liquid nitrogen were recovered, and incubated in a 37 incubator under 5% CO2. After being subcultured, cells in a logarithmic growth stage were distributed with normal saline to be a cell suspension in a concentration of 1-2×10^7 cells/ml. The cell suspension was inoculated into BALB/C nude mice (SPF grade, 18-20 g, 6 weeks old, male) subcutaneously at right axillary. The tumor tissues were aseptically taken from the 2nd generation of xenograft model of A549 human lung cancer in a vigorous growth stage and cut into small uniform pieces in the size of 1-2 mm^3. The right axillary of each nude mouse was inoculated one piece subcutaneously via a trocar. When the inoculated tumor could be touched, the mice were randomly grouped and administered according to the experimental design program. All contacted feed, padding, cages and equipment, etc., should be autoclaved prior to use. The nude mice were fed in a laminar flow rack. Tumor sizes and animal weights were observed and tested dynamically. Mice in each group were sacrificed 3 weeks later or so, and tumors were surgically removed and weighed. The inhibition rate on tumor was calculated according to the following formula: Inhibition rate %=[(Mean tumor weight of the control group−mean tumor weight of the treatment group)/mean tumor weight of the control group]×100%;
as §10

[16] = cyclophosphamide 15 mg/kg ip × 7 qd
[17] = cyclophosphamide 30 mg/kg ip × 7 qd
[18] = Gemcitabine 25 mg/kg iv × 3 q 3 d
[19] = Gemcitabine 50 mg/kg iv × 3 q 3 d

Compound: O=P1(N(CCCl)CCCl)NCCCO1 (stereo not drawn) [cyclophosphamide, Cyclophosphamide]
- Inhibition rate ([1]; CTX 10 mg/kg iv × 2(3, 5)): 37.83* %
- Weight of tumor x ± SD ([1]; CTX 10 mg/kg iv × 2(3, 5)): 2.12 ± 1.22 g
- Inhibition rate ([1]; CTX 30 mg/kg iv × 7): 87.68** %
- Weight of tumor x ± SD ([1]; CTX 30 mg/kg iv × 7): 0.42 ± 0.85 g
- Inhibition rate ([2]; CTX 30 mg/kg ip × 2(1, 3)): 41.77* %
- Weight of tumor x ± SD ([2]; CTX 30 mg/kg ip × 2(1, 3)): 0.92 ± 0.21 g
- Inhibition rate [3, 16]: 27.82%
- Weight of animal end [3, 16]: 24.8 g
- Weight of animal start [3, 16]: 20.7 g
- Weight of tumor x ± SD [3, 16]: 1.108 ± 0.09 g
- Inhibition rate [3, 17]: 82.74%
- Weight of animal end [3, 17]: 25.0 g
- Weight of animal start [3, 17]: 20.5 g
- Weight of tumor x ± SD [3, 17]: 0.265 ± 0.12 g

- Weight of animal end [4, 18]: 25.1 g
- Weight of animal start [4, 18]: 20.1 g
- Weight of animal end [4, 19]: 24.2 g
Compound: Nc1ccn([C@@H]2O[C@H](CO)[C@@H](O)C2(F)F)c(=O)n1 [Gemcitabine, gemcitabine hydrochloride]
- Inhibition rate [4, 18]: 49.14%
- Weight of tumor x ± SD [4, 18]: 0.886 ± 0.24 g
- Inhibition rate [4, 19]: 87.66%
- Weight of tumor x ± SD [4, 19]: 0.215 ± 0.11 g
- Inhibition rate [5]: 24.61%
- Weight of tumor x ± SD [5]: 0.1443 ± 0.081 g

Compound: O=C1c2c(O)ccc(O)c2C(=O)c2c(NCCNCCO)ccc(NCCNCCO)c21 [DHAD, Mitoxantrone]
- Inhibition rate ([2]; DHAD 2 mg/kg ip × 2(1, 3)): 50.63** %
- Weight of tumor x ± SD ([2]; DHAD 2 mg/kg ip × 2(1, 3)): 0.78 ± 0.20 g

- IC50 [7]: 0.28 µg/mL (≈ 0.328 µM)
- IC50 [8]: 0.45 µg/mL (≈ 0.527 µM)
- IC50 [9]: 0.22 µg/mL (≈ 0.258 µM)
- IC50 [10]: 0.49 µg/mL (≈ 0.574 µM)
- IC50 [11]: 0.44 µg/mL (≈ 0.515 µM)
- IC50 [12]: 0.46 µg/mL (≈ 0.539 µM)
- IC50 [13]: 0.41 µg/mL (≈ 0.48 µM)
- IC50 [14]: 0.18 µg/mL (≈ 0.211 µM)
Compound: CC(=O)O[C@H]1C(=O)[C@@]2(C)[C@H]([C@H](OC(=O)c3ccccc3)[C@]3(O)C[C@H](OC(=O)[C@H](O)[C@@H](NC(=O)c4ccccc4)c4ccccc4)C(C)=C1C3(C)C)[C@]1(OC(C)=O)CO[C@@H]1C[C@@H]2O [Taxol, paclitaxel]
- Inhibition rate [6]: 62.87%

- Weight of animal start ([15]; Adriamycin 1 mg/kg ip × 7 qd): 21.3 g
Compound: COc1cccc2c1C(=O)c1c(O)c3c(c(O)c1C2=O)C[C@@](O)(C(=O)CO)C[C@@H]3O[C@H]1C[C@H](N)[C@H](O)[C@H](C)O1 [Adriamycin]
- Inhibition rate ([15]; Adriamycin 1 mg/kg ip × 7 qd): 38.41%
- Weight of tumor x ± SD ([15]; Adriamycin 1 mg/kg ip × 7 qd): 0.712 ± 0.18 g
- Inhibition rate ([15]; Adriamycin 2 mg/kg ip × 7 qd): 70.76%
- Weight of tumor x ± SD ([15]; Adriamycin 2 mg/kg ip × 7 qd): 0.338 ± 0.17 g
